Source: patent US20250073309A1, “METHODS OF TREATMENT OF PEDIATRIC PUBERTY USING ORAL FORMULATIONS OF LEUPROLIDE” (Enteris Biopharma, Inc., priority 2021, published 2025)

Settings: female, human, in vivo, sc, 1 mg
Procedure: The presently disclosed embodiments may include a technology platform employing enteric coating and permeation enhancement to enable systemic delivery of peptides via the oral route. To determine whether the oral formulation described herein enables systemic delivery of therapeutic doses of the GnRH agonist leuprolide via oral route, a randomized, four-period, four-treatment, crossover pharmacokinetic and food effect study was conducted in 14 healthy female volunteers, which compared PK profiles following single administrations of 1 and 4 mg of leuprolide—the latter under both fasting and fed conditions—to that of a single subcutaneous injection of 1 mg of leuprolide acetate.
Study objectives were to assess the relative bioavailability, dose proportionality, safety and tolerability of orally-administered leuprolide, as well as the effect of food on drug absorption. Frequent blood sampling for 24 hours followed each dose, and each treatment was separated by 7 days. […] The ‘fed’ condition involved consumption of a high-fat, high-calorie meal 30 minutes prior to drug administration.

## CCNC(=O)[C@@H]1CCCN1C(=O)[C@H](CCCNC(=N)N)NC(=O)[C@H](CC(C)C)NC(=O)[C@@H](CC(C)C)NC(=O)[C@H](Cc1ccc(O)cc1)NC(=O)[C@H](CO)NC(=O)[C@H](Cc1c[nH]c2ccccc12)NC(=O)[C@H](Cc1c[nH]cn1)NC(=O)[C@@H]1CCC(=O)N1 [sc leuprolide, leuprolide acetate]
  Mean AUC0-24h: 163.0 ± 18.8 ng·h/mL
  Mean Cmax: 59.4 ± 9.1 ng/mL
  Mean Tmax: 3.49 ± 0.23 h
